Entries after “also recorded” stand apart in the source; their conditions may differ.
What was measured:
ANBL-6 [1] = experiment: MTS assay (cell viability / metabolic activity); type: cell-based, human; settings: ANBL-6, 3 days or 7 days
Description: (§1) Percent cell viability was determined using MTS solution (Promega, Madison, Wis.) by measuring absorbance at 490 nm using a Synergy HT Multi-Detection Microplate Reader (BioTek Instruments, Inc., Winooski, Vt.) with untreated cells being 100%. GraphPad Prism (GraphPad Software Inc., La Jolla, Calif.) was used to analyze data by non-linear regression with the log (inhibitor) vs. the response with a variable slope with the IC50 calculated. Data are expressed as a percentage of maximum metabolic activity. The experiments were performed in triplicate.
as §1, with “Metabolic activity” for “Percent cell viability”, “(Promega)” for “(Promega, Madison, Wis.)”, “Instruments Inc.)” for “Instruments, Inc., Winooski, Vt.)”, “Inc.)” for “Inc., La Jolla, Calif.)”, “versus” for “vs.”, “slope.” for “slope with the IC50 calculated.”

MM1-144 = experiment: MTS assay (cell viability / metabolic activity); type: cell-based, human; settings: MM144 (MM1-144), 3 days
Description: as §1
as §1, with “Metabolic activity” for “Percent cell viability”, “(Promega)” for “(Promega, Madison, Wis.)”, “Instruments Inc.)” for “Instruments, Inc., Winooski, Vt.)”, “Inc.)” for “Inc., La Jolla, Calif.)”, “versus” for “vs.”, “slope.” for “slope with the IC50 calculated.”

NCI-H929 = experiment: MTS assay (cell viability / metabolic activity); type: cell-based, human; settings: 3 days
Description: as §1
as §1, with “Metabolic activity” for “Percent cell viability”, “(Promega)” for “(Promega, Madison, Wis.)”, “Instruments Inc.)” for “Instruments, Inc., Winooski, Vt.)”, “Inc.)” for “Inc., La Jolla, Calif.)”, “versus” for “vs.”, “slope.” for “slope with the IC50 calculated.”

OCI-My5 [2] = experiment: MTS assay (cell viability / metabolic activity); type: cell-based, human; settings: OCI-My5, 3 days
Description: as §1
as §1, with “Metabolic activity” for “Percent cell viability”, “(Promega)” for “(Promega, Madison, Wis.)”, “Instruments Inc.)” for “Instruments, Inc., Winooski, Vt.)”, “Inc.)” for “Inc., La Jolla, Calif.)”, “versus” for “vs.”, “slope.” for “slope with the IC50 calculated.”

U266 [3] = experiment: MTS assay (cell viability / metabolic activity); type: cell-based, human; settings: U266, 3 days
Description: as §1
as §1, with “Metabolic activity” for “Percent cell viability”, “(Promega)” for “(Promega, Madison, Wis.)”, “Instruments Inc.)” for “Instruments, Inc., Winooski, Vt.)”, “Inc.)” for “Inc., La Jolla, Calif.)”, “versus” for “vs.”, “slope.” for “slope with the IC50 calculated.”

ANBL-6 [4] = experiment: Senescence induced β-gal activity at pH 6 (C12FDG, flow cytometry); type: cell-based, human; settings: ANBL-6, 1 nM, 3 days (data not shown)
Description: (§2) Senescence induced β-galactosidase (β-gal) activity was detected as described previously (Debacq-Chainiaux et al. (2009) Nature Protocols, 4: 1798-1806). […] To induce lysosomal alkalinization, cells were incubated in 100 nM bafilomycin A1 (Sigma) for 1 h. Then cells were incubated for 30 min with the β-gal substrate dodecanoylaminofluorescein di-β-D-galactopyranoside (C12FDG; Invitrogen), which becomes fluorescent after cleavage by β-gal. After washing twice with cold PBS, cells were resuspended in cold PBS containing 1 mM phenylethyl thiogalactoside (PETG), a β-gal inhibitor, and analyzed by flow cytometry for C12-fluorescein.
(§3) Intracellular β-galactosidase (β-gal) activity was measured as an indicator for replicative senescence. […] After treatment, cells were incubated with 100 nM bafilomycin A1 (Sigma) for 1 hour to induce lysosomal alkalinization. Then cells were incubated for 30 minutes with the 33 μM of β-gal substrate dodecanoylaminofluorescein di-β-D-galactopyranoside (C12FDG; Invitrogen), which becomes fluorescent after cleavage to C12-fluorescein. After washing twice with cold PBS, cells were resuspended in cold PBS containing 1 mM phenylethyl thiogalactoside (PETG), a β-gal inhibitor, and analyzed by flow cytometry for C12-fluorescein.

OCI-My5 [5] = experiment: as above; type: cell-based, human; settings: OCI-My5, 1 nM, 3 days (also 4, 6, 7 days)
Description: as §2, §3

U266 [6] = experiment: as above; type: cell-based, human; settings: U266, 1 nM, 3 days
Description: as §2, §3

OCI-My 5 cells = experiment: Cell proliferation assay (3[H]-thymidine incorporation); type: cell-based, human; settings: OCI-My 5, 0.3 pM-25 nM, 3 days
Description: The proliferative status of the cells was determined by measuring ^3[H]-thymidine incorporation.

[7] = system: primary myeloma cells from patients; experiment: Treatment of primary myeloma cells from patients (trypan blue / MTT); type: cell-based, human; settings: 25 nM, 72 h
Description: Trypan blue and MTT assays were used to determine the number of viable cells. The percentage of viable recovered cells was calculated based upon the number of viable cells recovered from DMSO-treated control cells, which was arbitrarily designated as 100%.
Percent viable cell recovery was determined by trypan blue staining, with untreated control cells designated as 100%.

OCI-My 5 tumors = experiment: OCI-My5 xenograft model in SCID mice; type: in vivo, mouse; settings: OCI-My5 s.c., 100 μg i.v. on days 14, 16, 18
Source text: Eight mice were included in each group.
Each group consisted of eight mice.

Daudi cells = experiment: Binding of anti-CD138 IgG to Daudi cells; design: species or system human; settings: data not shown
U266 tumors = experiment: U266 xenograft model in NSG mice; settings: U266 s.c., 100 μg on days 14, 16, 18
Description: For U266 tumors, NOD scid IL-2 receptor gamma chain knock out (NSG) mice were injected subcutaneously with 1×10^7 U226 cells and treated on days 14, 16 and 18 with 100 μg of the indicated proteins. […] Survival was monitored as well as the size of the tumors.
For U266 tumors, experiments were carried out as described above except that NOD-scid IL2rγ^null (NSG) mice were used.

## anti-CD138: Unfused human anti-CD138 IgG1 with VH and VL of antibody B-B4 [reference compound]
ANBL-6 [1]
  cell viability / growth inhibition (MTS assay), result in words: no effect
MM1-144
  cell viability / growth inhibition (MTS assay), result in words: no effect
NCI-H929
  cell viability / growth inhibition (MTS assay), result in words: no effect
OCI-My5 [2]
  cell viability / growth inhibition (MTS assay), result in words: no effect
U266 [3]
  cell viability / growth inhibition (MTS assay), result in words: no effect
ANBL-6 [4]
  β-gal activity at pH 6 (senescence), result in words: no increases
OCI-My5 [5]
  β-gal activity at pH 6 (senescence), result in words: little or no increase in β-gal activity
U266 [6]
  β-gal activity at pH 6 (senescence), result in words: no increase under any conditions
OCI-My 5 cells
  proliferation (3[H]-thymidine incorporation), result in words: did not decrease the ability of the cells to proliferate
[7]
  viability of primary myeloma cells, result in words: little effect
OCI-My 5 tumors
  survival / protection, result in words: increased survival slightly; also recorded: did not differ significantly from PBS treated mice
Daudi cells
  binding to Daudi cells: did not bind to Daudi cells
U266 tumors
  survival / protection against tumor growth, result in words: significant protection

— patent US9803021B2 (The Regents of the University of California, priority 2012, dated 2017)
